This note sets out measurements from US7425631B2 (Amgen Inc., priority 2003, dated 2008).

The target in one experiment is T1, human bradykinin B1 receptor (Homo sapiens, UniProt P46663).
T1 construct: expressed in transfected cells; host or cells: CHO-d-AQN cells (membranes prepared in-house)
T1 sequence (P46663 1-353): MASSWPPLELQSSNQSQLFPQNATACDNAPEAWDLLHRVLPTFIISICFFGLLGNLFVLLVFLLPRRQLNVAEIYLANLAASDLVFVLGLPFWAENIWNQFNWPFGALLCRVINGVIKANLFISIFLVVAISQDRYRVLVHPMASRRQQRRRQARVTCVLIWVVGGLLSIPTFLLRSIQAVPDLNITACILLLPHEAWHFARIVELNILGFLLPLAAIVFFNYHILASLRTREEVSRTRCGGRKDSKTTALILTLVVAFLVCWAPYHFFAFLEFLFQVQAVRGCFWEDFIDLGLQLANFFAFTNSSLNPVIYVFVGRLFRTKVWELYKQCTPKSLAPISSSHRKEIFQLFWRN
The experiment can be described thus: Radioligand binding assay for human B1 bradykinin receptor ([3H]des-arg10 kallidin). To be noted: membranes of CHO cells expressing human B1 receptor; read-out: binding Ki's to the hB1 receptor. On the procedure: Preparation of membranes expressing human B1 and human B2 bradykinin receptor. Membranes were prepared from CHO-d^−AQN cells stably transfected with human bradykinin B1 receptor cDNA. For large-scale production of membranes, cells were grown in 100 L suspension culture to 1.0E8 cells/mL then harvested using the Viafuge at continuous centrifugation of 1000 g. For pilot studies, cells were grown in 2 L spinner culture and harvested by centrifugation (1900 g, 10 min, 4° C.). […] The resulting cell lysate was centrifuged (1900 g, 10 min, 4° C.), and the crude particulate fraction isolated by centrifugation (142,000 g, 1 h, 4° C.) of the low-speed supernatant. The resulting pellet was resuspended in ⅓ the original lysis buffer volume, homogenized, and recentrifuged as above. The membrane pellet was resuspended by homogenization in storage buffer (25 mM HEPES, pH 7.4, 3 mM MgCl2, 10% (w/v) sucrose and Complete Protease Inhibitor tablets (EDTA-free)). Single-use aliquots were made and flash-frozen in liquid N2 prior to storage at −80° C.
Radioligand Binding Assay for human B1 and human B2 bradykinin receptor. […] Membranes (50 μL) were added last. […] Nonspecific binding was defined with 2 μM des-Arg^10Leu^9 kallidin. […] The assay mixture was incubated with shaking for 1 hr at RT and then filtered through GF/C plates presoaked in 0.5% polyethyleneimine (Unifilter; Perkin Elmer Life Sciences) using a Filtermate 96-well harvester (Perkin Elmer Life Sciences). […] The plates were sealed and activity read on Topcount (Perkin Elmer Life Sciences) using a count time of 3 min per channel.
Data analysis. Data was analyzed in XLFit with the four-parameter logistic y=A+((B-A)/(1+((C/x)^D))) and fit with the Levenburg-Marquardt algorithm. Raw cpm were converted to percent of control values prior to analysis (POC=((compound cpm−nonspecfic cpm)/(no-compound cpm−nonspecific cpm)*100)). Ki values were determined from the IC50 using the Cheng-Prusoff equation and Kd values determined by direct saturation binding of the radioligands.
What is called Ki is the equilibrium dissociation constant of an inhibitor or competing ligand from its target. In the case of `O=C(C[C@@H](NS(=O)(=O)c1cc(Cl)cc(Cl)c1)c1ccccc1)NC1CCOc2cc(CN3CCCCC3)ccc21` (stereo in doubt) [Example 1h, 3-(3,5-Dichloro-benzenesulfonylamino)-3-phenyl-N-(7-piperidin-1-ylmethyl-chroman-4-yl)-propionamide], the Ki was below 100 nM.
On the same count and under the same terms, the value for `O=C(C[C@@H](NS(=O)(=O)c1ccc2ccccc2c1)c1ccccc1)NC1CCOc2cc(CN3CCOCC3)ccc21` (stereo in doubt) [Example 3j, N-(7-Morpholin-4-ylmethyl-chroman-4-yl)-3-(naphthalen-2-yl-sulfonylamino)-3-phenyl-propionamide] was below 100 nM; that for `CN1c2cc(CN3CCCCC3)ccc2C(NC(=O)C[C@@H](NS(=O)(=O)c2ccc3ccccc3c2)c2ccccc2)CS1(=O)=O` (stereo in doubt) [Example 13, 3-(Naphthalen-2-yl-sulfonylamino)-N-(1-methyl-2,2-dioxo-7-piperidin-1-ylmethyl-1,2,3,4-tetrahydro-2λ^6-benzo[c][1,2]thiazin-4-yl)-3-phenyl-propionamide] was below 100 nM; that for `CN1CCN(Cc2ccc3c(c2)OCCC3NC(=O)C[C@@H](NS(=O)(=O)c2ccc3ccccc3c2)c2ccccc2)CC1` (stereo partly drawn) [Example 1a, N-[7-(4-Methyl-piperazin-1-ylmethyl)-chroman-4-yl]-3-(naphthyl-2-ylsulfonylamino)-3-phenyl-propionamide] was below 100 nM.
As to `O=C(C[C@@H](NS(=O)(=O)c1ccc2ccccc2c1)c1ccccc1)NC1CCOc2cc(CN3CCCC3)ccc21` (stereo partly drawn) [Example 1d, 3-(Naphthalen-2-ylsulfonylamino)-3-phenyl-N-(7-pyrrolidin-1-ylmethyl-chroman-4-yl)-propionamide], the inhibitory constant (Ki) was below 100 nM.
Take `O=C(C[C@@H](NS(=O)(=O)c1ccc(Cl)c(Cl)c1)c1ccccc1)NC1CCOc2cc(CN3CCCCC3)ccc21` (stereo partly drawn) [Example 1f, 3-(3,4-Dichloro-benzenesulfonylamino)-3-phenyl-N-(7-piperidin-1-ylmethyl-chroman-4-yl)-propionamide]: the Ki was below 100 nM.
In the case of `CC(C)NCc1ccc2c(c1)OCCC2NC(=O)C[C@@H](NS(=O)(=O)c1ccc2ccccc2c1)c1ccccc1` (stereo partly drawn) [Example 3, N-[7-(Isopropylamino-methyl)-chroman-4-yl]-3-(naphthalen-2-ylsulfonylamino)-3-phenyl-propionamide], the Ki was below 100 nM.
With `CC(C)N(C)Cc1ccc2c(c1)OCCC2NC(=O)C[C@@H](NS(=O)(=O)c1ccc2ccccc2c1)c1ccccc1` (stereo partly drawn) [Example 3b], the Ki was below 100 nM.
For the compound `CCN(Cc1ccc2c(c1)OCCC2NC(=O)C[C@@H](NS(=O)(=O)c1ccc2ccccc2c1)c1ccccc1)C(C)(C)C` (stereo partly drawn) [Example 3f, N-{7-[(tert-Butyl-ethyl-amino)-methyl]-chroman-4-yl}-3-(naphthalen-2-yl-sulfonylamino)-3-phenyl-propionamide], the inhibition constant (Ki) is below 100 nM.
Take `C[C@@H]1CC[C@@H](C)N1Cc1ccc2c(c1)OCCC2NC(=O)C[C@@H](NS(=O)(=O)c1ccc2ccccc2c1)c1ccccc1` (stereo partly drawn) [Example 3h, N-[7-(2R, 5R-Dimethyl-pyrrolidin-1-ylmethyl)-chroman-4-yl]-3-(naphthalen-2-yl-sulfonylamino)-3-phenyl-propionamide]: the Ki was below 100 nM.
Turning to `CCN(CC)Cc1ccc2c(c1)OCCC2NC(=O)C[C@@H](NS(=O)(=O)c1ccc2ccccc2c1)c1ccccc1` (stereo partly drawn) [Example 3l, N-(7-Diethylaminomethyl-chroman-4-yl)-3-(naphthalen-2-yl-sulfonylamino)-3-phenyl-propionamide], the inhibition constant (Ki) was below 100 nM.
For the compound `O=C(C[C@@H](NS(=O)(=O)c1ccc2ccccc2c1)c1ccccc1)NC1CCc2c(CN3CCCCC3)cccc21` (stereo partly drawn) [Example 4a, 3-(Naphthalen-2-yl-sulfonylamino)-3-phenyl-N-(4-piperidin-1-ylmethyl-indan-1-yl)-propionamide], the Ki was below 100 nM.
Take `O=C(C[C@@H](NS(=O)(=O)c1ccc2ccccc2c1)c1ccccc1)NC1CCc2cc(CN3CCCCC3)ccc21` (stereo partly drawn) [Example 5a, 3-(Naphthalen-2-yl-sulfonylamino)-3-phenyl-N-(5-piperidin-1-ylmethyl-indan-1-yl)-propionamide]: the Ki is below 100 nM.

A further experiment deals with T2, human B1 receptor (Homo sapiens, UniProt P46663).
T2 construct: expressed in transfected cells
T2 sequence (P46663 1-353): T1 sequence (P46663 1-353)
The experiment can be described thus: In vitro assay of human B1 receptor function using calcium flux (aequorin luminescence). Type of experiment: cell-based. To be noted: CHO D-/hB1/Aequorin cells, agonist 20 nM des-Arg10-Kallidin (EC80); read-out: binding IC50's to hB1 receptor function. As to the method: Activation of the Gq linked B1 receptor results in an increase in intracellular calcium. […] Aequorin is a 21-kDa photoprotein that forms a bioluminescent complex when linked to the chromophore cofactor coelenterazine.
Following coelenterazine incubation, an automated flash-luminometer platform was used to dispense the B1 antagonist compounds (dissolved in DMSO and diluted with buffer to the desired concentration (final DMSO concentration <1% DMSO)) to the cell plate, a CCD camera situated underneath the cell plate took 12 images of the cell plate at 5 second intervals to determine if there was any agonist activity with the compounds. The hB1 agonist, des-Arg10-Kallidin, was added to the cell plate and another 12 images were recorded to determine the IC50 of the antagonist(s).
On the technique in general: Calcium flux is commonly read through the fluorescence of an indicator in the cells.
The term IC50 denotes the concentration that gives 50% inhibition. As to `O=C(C[C@@H](NS(=O)(=O)c1ccc(Cl)c(Cl)c1)c1ccccc1)NC1CCOc2cc(CN3CCCCC3)ccc21` (stereo partly drawn) [Example 1f, 3-(3,4-Dichloro-benzenesulfonylamino)-3-phenyl-N-(7-piperidin-1-ylmethyl-chroman-4-yl)-propionamide], the IC50 is below 10 nM.
On the same count and under the same terms, the value for `O=C(C[C@@H](NS(=O)(=O)c1ccc2ccccc2c1)c1ccccc1)NC1CCc2cc(CN3CCCCC3)ccc21` (stereo partly drawn) [Example 5a, 3-(Naphthalen-2-yl-sulfonylamino)-3-phenyl-N-(5-piperidin-1-ylmethyl-indan-1-yl)-propionamide] was below 10 nM; that for `O=C(C[C@@H](NS(=O)(=O)c1cccc(C(F)(F)F)c1)c1ccc(F)cc1)N[C@@H]1CCCc2cc(CNC3CCCC3)ccc21` [n, (3R)-N-((1R)-6-((cyclopentylamino)methyl)-1,2,3,4-tetrahydro-1-naphthalenyl)-3-(4-fluorophenyl)-3-(((3-(trifluoromethyl)phenyl)sulfonyl)-amino)propanamide] was below 10 nM; that for `O=C(C[C@@H](NS(=O)(=O)c1cccc(C(F)(F)F)c1)c1ccc(F)cc1)N[C@@H]1CCCc2cc(CN3CCCC3)ccc21` [o, (3R)-3-(4-fluorophenyl)-N-((1R)-6-(1-pyrrolidinylmethyl)-1,2,3,4-tetrahydro-1-naphthalenyl)-3-(((3-(trifluoromethyl)phenyl)sulfonyl)-amino)propanamide] was below 10 nM.
Consider `O=C(C[C@@H](NS(=O)(=O)c1cccc(C(F)(F)F)c1)c1ccccc1)N[C@@H]1CCCc2cc(CN3CCC(F)(F)CC3)ccc21` [t, (3R)-N-((1R)-6-((4,4-difluoro-1-piperidinyl)methyl)-1,2,3,4-tetrahydro-1-naphthalenyl)-3-phenyl-3-(((3-(trifluoromethyl)phenyl)-sulfonyl)amino)propanamide], for which the IC50 was below 10 nM.
